# In PMC10641814 (Journal of Medicinal Chemistry, 2023):
# T1: hMAO-B (Homo sapiens, UniProt P27338)
# T1 construct: purchased Sigma-Aldrich M7441
# T1 sequence (P27338 1-520): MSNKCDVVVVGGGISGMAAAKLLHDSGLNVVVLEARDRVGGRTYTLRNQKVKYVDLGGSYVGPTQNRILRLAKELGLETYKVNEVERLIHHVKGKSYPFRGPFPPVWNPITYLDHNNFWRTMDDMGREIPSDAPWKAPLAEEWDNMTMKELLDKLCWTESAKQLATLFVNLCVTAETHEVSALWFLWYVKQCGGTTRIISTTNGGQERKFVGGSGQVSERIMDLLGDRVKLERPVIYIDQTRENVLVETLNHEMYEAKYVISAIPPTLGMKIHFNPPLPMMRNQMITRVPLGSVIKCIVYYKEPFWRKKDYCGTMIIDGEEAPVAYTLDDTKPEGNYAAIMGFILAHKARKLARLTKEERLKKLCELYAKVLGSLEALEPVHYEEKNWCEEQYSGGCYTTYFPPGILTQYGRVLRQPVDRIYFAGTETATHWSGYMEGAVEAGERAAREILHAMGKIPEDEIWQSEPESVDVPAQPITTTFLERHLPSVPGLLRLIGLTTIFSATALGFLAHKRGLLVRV
# B1: mouse 5-HT3A receptor (receptor, UniProt P23979 24-489, looked up)
# chain: SRRRATQARDTTQPALLRLSDHLLANYKKGVRPVRDWRKPTTVSIDVIMYAILNVDEKNQVLTTYIWYRQYWTDEFLQWTPEDFDNVTKLSIPTDSIWVPDILINEFVDVGKSPNIPYVYVHHRGEVQNYKPLQLVTACSLDIYNFPFDVQNCSLTFTSWLHTIQDINITLWRSPEEVRSDKSIFINQGEWELLEVFPQFKEFSIDISNSYAEMKFYVIIRRRPLFYAVSLLLPSIFLMVVDIVGFCLPPDSGERVSFKITLLLGYSVFLIIVSDTLPATAIGTPLIGVYFVVCMALLVISLAETIFIVRLVHKQDLQRPVPDWLRHLVLDRIAWILCLGEQPMAHRPPATFQANKTDDCSGSDLLPAMGNHCSHVGGPQDLEKTPRGRGSPLPPPREASLAVRGLLQELSSIRHFLEKRDEMREVARDWLRVGYVLDRLLFRIYLLAVLAYSITLVTLWSIWHYS
# notes: 5-hydroxytryptamine (serotonin) receptor 3A, mouse; called full-length in the discussion; the construct is only said to be 'as previously described with some minor modifications'; The intracellular domain is only partly resolved; also called m5-HT3R; m5HT3R
# Assays:
# hMAO-B = molecular target: T1, hMAO-B; assay: MAO-B reversibility study; format: biochemical; conditions: at concentrations corresponding to IC80, p-tyramine raised to 1 mM
# [1] = test system: oAβ25–35-induced memory deficits in rats; assay: oAβ25–35-induced memory deficits in T-maze test in rats; format: in vivo, rat
# Experimental: For the AD model, adult male Sprague–Dawley rats (Janvier Lab., France) weighing 260–280 g (8 weeks) at the beginning of the experiments were housed 1 week before experiments in a standard animal facility of the University of Montpellier (CECEMA, registration number E34-172-23) (12/12 h light/dark cycle with lights on at 07:00; 21 ± 1 °C, food and water ad libitum). All experiments, including sacrifices, were performed in conscious rats between 09:00 and 12:00, during the diurnal period of the circadian rhythm. Male has been preferred over female because the latter may present a confounding factor of the estrous cycle, a parameter that needs to be systematically controlled. Animal procedures were conducted in strict adherence to the European Union Directive of 2010 (2010/63/EU). The National French Animal Welfare Committee and the local committee at the University of Montpellier approved all protocols (authorization: CEEA-LR-12160). All efforts were made to minimize the number of animals used, potential pain, suffering, and distress.
# As previously detailed,[37],[64] to induce the acute model of AD (oAβ25–35 model), rats were divided into three groups. One group had no surgery (Naive group), a second set of animals received an intracerebroventricular (icv) injection of incubated scrambled peptide (negative control groups—10 μg/rat—Sc), and a third set received an icv injection of oAβ25–35 (AD groups—10 μg/rat—Aβ). The animals were anesthetized with an intraperitoneal (ip) injection of a mixture of ketamine and xylazine (80 and 10 mg/kg b.w., respectively). Scrambled peptide and oAβ25–35 were injected directly into the lateral ventricles at a rate of 2 μL/min using a David-Kopf stereotaxic apparatus (coordinates of injection: AP −1 mm, L ±1.5 mm, DV −3.5 mm).
# 1—A curative approach: This treatment was started 1 week after the induction of amyloid toxicity (icv injection of oAβ25–35) and consisted of 2 ip injections (1.5 mg/kg per injection) per day for 1 week. On day 14, animals were subjected to a behavioral memory test (T-maze) and sacrificed on day 15 by decapitation.
# (§1) 2—A preventive approach: This treatment was started at the same time as the induction of amyloid toxicity and consisted of implanting ip, and during the same anesthetic procedure necessary for the icv injection of oAβ25–35, an osmotic pump (Alzet-EML2, Charles-River, France) which continuously delivered the molecules for 1 week at the dose of 3 mg/kg/day. On day 7, animals were submitted to a behavioral memory test (T-maze) and sacrificed on day 8 by decapitation.
# As previously reported, the T-maze test was used to rapidly assess cognitive ability in rats, especially the short-term memory deficits, when performed in two successive sessions.[37],[38],[64],[65] The T-maze consisted of two short arms (A and B), extending from a longer alley (C) and enclosed with high walls. The test involved two trials, separated by 1 h. During the training session, one short arm (B) was closed. Rats were placed at the end of the long alley, allowed to visit the maze for 10 min, and then returned to their home cage. […] The number of visits and time spent in each arm were measured. The results were expressed as the ratio of the time spent in the initially closed novel arm, over the time spent in the previous arm, and as a ratio of the number of entries into the novel arm over the familiar one. […]
# [2] = test system: hippocampus of rats injected with oAβ25–35; assay: Western blot of hippocampal AD biomarkers in oAβ25–35-injected rats; format: in vivo, rat; conditions: oAβ25–35 icv
# Experimental: As previously detailed,[37],[64] to induce the acute model of AD (oAβ25–35 model), rats were divided into three groups. […] The animals were anesthetized with an intraperitoneal (ip) injection of a mixture of ketamine and xylazine (80 and 10 mg/kg b.w., respectively). Scrambled peptide and oAβ25–35 were injected directly into the lateral ventricles at a rate of 2 μL/min using a David-Kopf stereotaxic apparatus (coordinates of injection: AP −1 mm, L ±1.5 mm, DV −3.5 mm).
# On day 14, animals were subjected to a behavioral memory test (T-maze) and sacrificed on day 15 by decapitation.
# as §1
# At the time of sacrifice, all hippocampi were dissected out, weighed, and rapidly frozen in liquid nitrogen for Western blot (WB) analysis.
# Western blot analyses were performed on the whole hippocampus as previously described.[37] All antibodies used are detailed in Table S3. Briefly, after sacrifice, hippocampi were microdissected, weighed, immediately frozen in liquid nitrogen, and stored at −20 °C. Tissues were sonicated (VibraCell; Sonics & Materials, USA) in a lysis buffer[37] and centrifuged (4 °C). Supernatants were collected, and the protein concentration was measured using a bicinchoninic Acid (BCA) assay (ThermoFisher Scientific, France). […] The membranes were incubated overnight (4 °C) with the primary antibody, washed, and then incubated for 2 h with the appropriate horseradish peroxidase-conjugated secondary antibody. […] The intensity of the immunoreactive signals was quantified using Image-J software (NIH, Bethesda, […], USA). β-Tubulin (β-Tub) was used as a loading control for all experiments.
# [3] = test system: SCOP-induced cognitive impairment in rats; assay: Scopolamine-induced amnesia in NOR test in rats; format: in vivo, rat; conditions: SCOP 1.25 mg/kg ip, PZ-1922 0.3, 1, 3 mg/kg ip, donepezil 1 and 3 mg/kg ip
# Experimental: Rats were allowed to acclimate for at least 7 days before the beginning of the experimental procedure. During this week, the animals were handled at least 3 times. Behavioral testing was carried out during the light phase of the light/dark cycle. The experiments were conducted in accordance with the NIH Guide for the Care and Use of Laboratory Animals and were approved by the Ethics Committee for Animal Experiments, Maj Institute of Pharmacology. At least 1 h before the beginning of the experiments, rats were transferred to the experimental room for acclimation. Rats were tested in a dimly lit (25 lx) “open field” apparatus made of dull gray plastic (66 × 56 × 30 cm). After each measurement, the floor was cleaned and dried. […] For the scopolamine-induced memory impairment paradigm, 1 h ITI was chosen. During the first trial (familiarization T1), two identical objects (A1 and A2) were presented in opposite corners, approximately 10 cm from the walls of the open field. In the second trial (recognition, T2), one of the objects was replaced by a novel one (A = familiar and B = novel). […] Exploration time of the objects and the distance traveled were measured using the Any-maze video tracking system. Based on exploration time (E) of two objects during T2, the discrimination index (DI) was calculated according to the formula DI = (EB – EA)/(EA + AB).
# h5-HT6R = molecular target: T2, h5-HT6R (Homo sapiens, UniProt P50406); assay: 5-HT6R antagonist activity at Gs signaling, cAMP in 1321N1 cells (5-CT stimulated); format: cell-based; conditions: 1321N1 cells expressing h5-HT6R; read-out: EC50 (agonist, cAMP production)
# T2 construct: expressed in transfected cells
# T2 sequence (P50406 whole entry): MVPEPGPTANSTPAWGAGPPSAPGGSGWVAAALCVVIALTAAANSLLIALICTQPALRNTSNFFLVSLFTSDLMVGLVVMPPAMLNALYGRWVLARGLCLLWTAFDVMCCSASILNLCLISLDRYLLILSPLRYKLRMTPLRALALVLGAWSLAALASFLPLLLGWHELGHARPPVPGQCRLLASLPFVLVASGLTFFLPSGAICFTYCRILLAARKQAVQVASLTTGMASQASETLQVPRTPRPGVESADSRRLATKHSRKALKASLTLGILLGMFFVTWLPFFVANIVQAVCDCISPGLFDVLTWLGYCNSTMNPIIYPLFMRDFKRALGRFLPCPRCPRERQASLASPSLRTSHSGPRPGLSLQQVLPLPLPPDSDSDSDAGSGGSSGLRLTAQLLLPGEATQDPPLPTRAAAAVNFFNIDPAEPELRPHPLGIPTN
# [4] = molecular target: the molecule itself; assay: cryo-EM structure; purified receptor in detergent C12E9, pentameric SEC fractions concentrated to 10 mg/mL, incubated 5 min with PZ-1922 or PZ-1939 before freezing
# [5] = 1.5 mg/kg ip twice a day for 7 days
molecule,measurement,setting,value
C#CCN[C@@H]1CCc2ccccc21 [Rasagiline],reversibility of MAO-B inhibition (recovery of MAO-B activity),hMAO-B,irreversible inhibitor
"O=S(=O)(c1ccccc1)c1cnc2c(N3CCNCC3)cccc2c1 [Intepirdine, reference compound]","effect on oAβ25–35-induced memory deficits in T-maze, curative treatment","[1]; 1.5 mg/kg ip twice a day for 7 days, started 1 week after icv oAβ25–35",only partially reversed the memory deficits
same,"effect on oAβ25–35-induced memory deficits in T-maze, preventive treatment","[1]; 3 mg/kg/day by ip osmotic pump for 1 week, concomitant with icv oAβ25–35",did not exhibit the same preventive effect
same,"hippocampal Caspase-3 and Pro-caspase-3 expression, curative strategy",[2]; [5],decreased expression of Caspase-3 and Pro-caspase-3
same,"hippocampal PSD-95 and SYN levels, curative treatment",[2]; [5],reversed only the SYN level
same,"hippocampal Caspase-3 and Pro-caspase-3 expression, preventive treatment",[2]; 3 mg/kg/day osmotic pump 1 week,prevented increased expression of Caspase-3 and Pro-caspase-3
same,hippocampal GFAP increase,[2]; curative and preventive approach,Neither PZ-1922 nor intepirdine impacted the GFAP increase
COc1cc2c(cc1OC)C(=O)C(CC1CCN(Cc3ccccc3)CC1)C2 (centres unmarked) [donepezil],effect on SCOP-induced short-term memory deficits (discrimination index) in NOR test,[3],reduced the memory deficits induced by SCOP
"NCCc1c[nH]c2ccc(C(N)=O)cc12 [Compound 5-CT, 5-carboxamidotryptamine]",EC50,h5-HT6R,13 nM
C[C@H](NCc1ccc(OCc2cccc(F)c2)cc1)C(N)=O [Safinamide],reversibility of MAO-B inhibition (recovery of MAO-B activity),hMAO-B,reversible MAO-B inhibitors
B1,stoichiometry N,[4],5
